Source: patent publication US20050272605A1, “Method to treat seeds” (priority 2002, published 2005)

How the values were obtained:
[1] = tested on: Brachiaria dictyoneura seeds; experiment: Germination test of Brachiaria dictyoneura seeds after scarification and aerated nitrate treatment (Example 1); assay type: in vivo; settings: for % Germination 7 days (paper + water): paper substrate irrigated with water, after 7 months storage
Protocol: The tank is filled with an approximately 0.2% solution of potassium nitrate 16 in water, to level which will ensure that the seed-containing bags are just immersed. The seeds 15 are immersed at ambient temperature for about 10 to about 36 hours, during which time the tank is constantly aerated by a flow of air form the compressed air source through the perforated pipe 12. The bags are then removed form the tank 10 and allowed to drain for about 12 hours. If the seed being treated requires addition of further agents such as gibberellic acid or smoke extract, then suitable quantities of these ingredients in solution are poured over the draining seed, and mixed by hand. The seeds are then dried to between 8% and 14% moisture content, preferably 12% moisture content, and stored as required.
A lot of Brachiaria dictyoneura seeds were harvested manually (by cutting the panicle and sweating for six days in heaps, and then threshing) in Zapote, Pérez Zeledón, Costa Rica, in July 2000. The seeds were dried in the shade, classified to remove waste and stored at 15° C. and 60% relative humidity for six months. A 30 kg sample of this seed lot was then scarified for 30 minutes with concentrated sulphuric acid on Jan. 4, 2001. The seeds were dried to 12% moisture and then re-scarified for a further 15 minutes on Feb. 26, 2001. After the second scarification the seeds were soaked in potassium nitrate for 24 hours and drained for 12 hours by the process described above.
Small 50 g sub-samples of the same seed lot were also taken, some of which were scarified once or twice but not treated, and some of which only received the first 30-minute scarification, but were treated. The seeds were then dried carefully in the sun until they reached the 12% moisture content. A sample of the nitrate treated, double scarified seed was tested for germination on Mar. 8, 2001, using 3 replicates of […] pure seeds on a soil-based substrate, at approximately 35° C. during the day, and 15° C. during the night, with florescent and incandescent lighting during the day (12 hours), in closed plastic germination trays. The result was 79% germination after 26 days. The four samples were then stored for a further 7 months when the following germination test was carried out on Nov. 17, 2001, using 4 replicates of 100 seeds on a paper substrate irrigated with water, and the same growth conditions described above.

[2] = tested on: Brachiaria brizantha seeds; experiment: Germination test of acid-scarified Brachiaria brizantha seeds on soil or paper substrate (Example 3); assay type: in vivo
Protocol: Effect of nitrate on a lot of acid-scarified Brachiaria brizantha imported from Brazil in July 2001, shortly after harvesting from the soil surface, using different substrates for the germination test.
The seeds were treated on Aug. 15, 2001 and after drying, samples were taken and tested for germination on Aug. 24, 2001. The soil substrate was maintained at the same moisture level throughout the test by weight. The paper substrate was maintained moist by irrigation from below, using a piece of plastic foam to separate the paper from the water in the base of the tray.

Paspalum notatum seeds [3] = experiment: Germination of Paspalum notatum seeds, lot of 2001 (Example 5); assay type: in vivo, Paspalum notatum cv Pensacola; settings: one scarification and aerated nitrate treatment
Paspalum notatum seeds [4] = experiment: Germination of Paspalum notatum seeds, lot of 1997 (Example 4); assay type: in vivo, Paspalum notatum (cv. Pensacola)
Panicum maximum seeds = experiment: Germination of Panicum maximum seeds (Example 6); assay type: in vivo, Panicum maximum cv. Tanzania; settings: scarified seeds
[5] = tested on: Brachiaria dictyoneura seeds; experiment: Germination test of Brachiaria dictyoneura seeds after scarification, nitrate soaking and GA (Example 2); assay type: in vivo
Excerpt: The seeds (two replicates of 100 seeds) were sown on a soil substrate with the same growth conditions described above.

For O=[N+]([O-])[O-].[K+] [Nitrate, potassium nitrate], the “% Germination 7 days (paper + water)” value ([1]; Scarified once, listed as Aerated nitrate treatment) was 87.25c %, the “% Germination 7 days (paper + water)” value ([1]; Scarified once, listed as aerated nitrate treatment) was 87% and the “% Germination 7 days (paper + water)” value ([1]; Scarified twice, listed as Aerated nitrate treatment) was 93.00c %. The “% Germination 7 days (paper + water)” value ([1]; Scarified twice, listed as aerated nitrate treatment) was 93%, the “germination after 26 days” value ([1]; double scarified seed, soil-based substrate, tested Mar. 8, 2001) was 79% and the seedling vigor ([1]; seedlings from treated seeds versus untreated) was “greater vigor”. For the same molecule, the “increase in germination due to nitrate treatment” value ([1]; seeds scarified once) was 30%, the “increase in germination due to nitrate treatment” value ([1]; seeds scarified twice) was 20% and the “% Germination 7 days” value ([2]; Paper substrate) was 77cd %. For the same molecule, the “% Germination 25 days” value ([2]; Paper substrate) was 82cde %, the “% Germination 7 days” value ([2]; Soil substrate) was 88de % and the “% Germination 25 days” value ([2]; Soil substrate) was 90e %. The “% Germination” value (Paspalum notatum seeds [3]) was 79.0%, the “% Germination” value (Paspalum notatum seeds [4]; Scarification 10 minutes) was 64.8% and the “% Germination” value (Paspalum notatum seeds [4]; Scarification 20 minutes) was 63.5%. The “% Germination” value (Panicum maximum seeds) was 50.0%, the “% Germination 15 days (soil substrate)” value ([5]; Scarification once (20 minutes)) was 42.5b % and the “% Germination 15 days (soil substrate)” value ([5]; Scarification twice (20 + 10 minutes)) was 65.0c %.
